Measurements published in ChEMBL document CHEMBL1641368, “NF kappa B inhibitors and antitrypanosomal metabolites from endophytic fungus Penicillium sp. isolated from Limonium tubiflorum” (Bioorg Med Chem, 2011).
pIC50: −log10 of the molar value. Values after ≈ are worked out from the molar mass of the structure shown.

Columns and labels:
[1] = tested on: Trypanosoma brucei brucei; experiment: Antitrypanosomal activity against Trypanosoma brucei brucei S427 after 48 hrs by alamar blue assay; format: functional; details: S427, 48 h
[2] = tested on: K562; experiment: Cytotoxicity against human K562 cells after 24 hrs by MTT assay; format: functional, cell-based; details: for pIC50: Homo sapiens, K562, 24 h, read-out: IC50; for IC50: k562
[3] = tested on: Jurkat; experiment: Cytotoxicity against human Jurkat cells after 24 hrs by MTT assay; format: functional, cell-based
[4] = tested on: U-937; experiment: Cytotoxicity against human U937 cells after 24 hrs by MTT assay; format: functional, cell-based; details: U-937, 24 h
[5] = Inhibition of NF-kappaB activity in TNFalpha-stimulated human K562 cells after 24 hrs by luciferase reporter gene assay; format: cell-based; details: K562, 24 h

Compound	MIC [1] [µM]	pIC50 [2]	pIC50 [3]	pIC50 [4]	pIC50 [5]	IC50 [2]
C[C@H]1CCC[C@H]2O[C@@H]2C(=O)c2c(O)cc(O)cc2CC(=O)O1	> 100	–	–	–	–	–
C[C@H]1CCC/C=C\C(=O)c2c(O)cc(O)cc2CC(=O)O1	> 100	–	–	–	–	–
COc1cc(CO)cc2c1C(=O)c1c(O)cc(O)c(Cl)c1C2=O	18.7 (≈ 6.26 µg/mL)	4.40	4.55	4.66	4.80	–
COc1cc(C)cc2c1C(=O)c1c(O)cc(O)c(Cl)c1C2=O	78.6 (≈ 25.1 µg/mL)	4.61	4.88	5.12	5.80	–
COc1cc(C)cc2c1C(=O)c1c(O)cc(O)c(Cl)c1C2O (configuration not stated)	9.75 (≈ 3.13 µg/mL)	–	–	–	–	–
Cc1cc(=O)c2c(C)cc(O)cc2o1	> 100	–	–	–	–	–
COc1cc(C)cc2c1C(=O)c1c(O)cc(O)cc1C2=O [1-O-METHYLEMODIN]	11 (≈ 3.12 µg/mL)	–	< 4.00	4.05	< 4.00	Not Active
CO[C@H]1CCC[C@H](C)OC(=O)Cc2cc(O)cc(O)c2C(=O)C1 [11ALPHA-METHOXYCURVULARIN]	9.68 (≈ 3.12 µg/mL)	4.39	5.64	5.34	5.00	–
CO[C@@H]1CCC[C@H](C)OC(=O)Cc2cc(O)cc(O)c2C(=O)C1 [11BETA-METHOXYCURVULARIN]	4.96 (≈ 1.6 µg/mL)	4.91	5.41	5.74	5.33	–
C=C1CC[C@@H]2C(C)(C)CCC[C@@]2(C)[C@@H]1CC/C(C)=C/Cn1c[n+](C)c2ncnc(N)c21 [AGELASINE D]	14.8	–	–	–	–	–
COc1cc(CO)cc2c1C(=O)c1c(O)cc(O)cc1C2=O [CARVIOLIN]	41.7 (≈ 12.5 µg/mL)	–	< 4.00	< 4.00	< 4.00	Not Active
C[C@H]1CCC/C=C/C(=O)c2c(O)cc(O)cc2CC(=O)O1 [DEHYDROCURVULARIN]	> 100	4.43	5.26	5.60	5.25	–
COc1cc(C)cc2c1C(=O)c1c(O)cc(O)c(Cl)c1[C@H]2[C@H]1c2cc(C)cc(OC)c2C(=O)c2c(O)cc(O)c(Cl)c21 [NEOBULGARONE E]	> 100	< 4.00	4.08	4.32	4.34	–
COc1cc(C)cc2c1C(=O)c1c(O)cc(O)c(Cl)c1[C@H]2[C@H]1c2cc(CO)cc(OC)c2C(=O)c2c(O)cc(O)c(Cl)c21 [NEOBULGARONE G]	> 100	–	< 4.00	< 4.00	< 4.00	Not Active
C[S+]([O-])c1cccc2ccc(=O)oc12 (configuration not stated) [SULFIMARINE]	> 100	–	–	–	–	–
Cc1ccc(C(=O)Nc2ccc(S(=O)(=O)O)c3cc(S(=O)(=O)O)cc(S(=O)(=O)O)c23)cc1NC(=O)c1cccc(NC(=O)Nc2cccc(C(=O)Nc3cc(C(=O)Nc4ccc(S(=O)(=O)O)c5cc(S(=O)(=O)O)cc(S(=O)(=O)O)c45)ccc3C)c2)c1 [SURAMIN]	0.06 (≈ 0.0778 µg/mL)	–	–	–	–	–
C/C=C/C=C/C(=O)C1=C(O)[C@@]2(C)[C@H]3C(C(=O)/C=C/C=C/C)=C(O)[C@@]4(C)[C@@H]1[C@]1(C)O[C@@]4(O)[C@@]3(C)O[C@@]12O [TRICHODIMEROL]	6.29 (≈ 3.12 µg/mL)	4.13	4.55	4.78	4.32	–
